This note sets out measurements from patent publication US20250002475A1 (EPICS THERAPEUTICS, priority 2023, published 2025).

One assay has as its system Caov-3 cells. In words: Caov-3 cellular viability assay (ATP-Lite, 72 h). It counts as cell-based. Conditions: Homo sapiens, ATP-Lite luminescence, % viability relative to DMSO. The method in brief:
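10000 cells/well treated 72 h at 37 °C, 5% CO2, in RPMI-1640 with 10% FBS and 0.1% DMSO final. Viability by ATP-Lite One Step luminescence. Expressed as % of DMSO control, with IC50 from each compound's concentration-response curve.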

Assay [1] deals with T1, recombinant METTL3/METTL14 complex (Homo sapiens, UniProt Q86U44).
T1 construct: purchased Active Motif 311970; host or cells: Sf9 cells
T1 sequence (Q86U44 whole entry): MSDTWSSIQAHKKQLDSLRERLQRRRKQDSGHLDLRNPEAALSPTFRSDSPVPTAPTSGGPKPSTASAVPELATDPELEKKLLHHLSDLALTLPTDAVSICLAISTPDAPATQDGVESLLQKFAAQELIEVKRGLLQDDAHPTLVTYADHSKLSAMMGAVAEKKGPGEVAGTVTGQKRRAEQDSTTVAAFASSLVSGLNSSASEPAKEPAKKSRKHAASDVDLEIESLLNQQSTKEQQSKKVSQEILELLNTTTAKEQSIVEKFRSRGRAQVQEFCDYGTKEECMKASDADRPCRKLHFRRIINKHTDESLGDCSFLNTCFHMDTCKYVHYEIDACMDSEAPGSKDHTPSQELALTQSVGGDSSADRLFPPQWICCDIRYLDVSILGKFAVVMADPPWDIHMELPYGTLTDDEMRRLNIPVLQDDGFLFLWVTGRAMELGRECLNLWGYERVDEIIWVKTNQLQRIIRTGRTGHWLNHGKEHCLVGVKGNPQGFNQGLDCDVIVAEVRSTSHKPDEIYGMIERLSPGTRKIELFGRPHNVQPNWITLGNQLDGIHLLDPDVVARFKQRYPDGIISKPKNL
T1 sequence (Q9HCE5 whole entry partner): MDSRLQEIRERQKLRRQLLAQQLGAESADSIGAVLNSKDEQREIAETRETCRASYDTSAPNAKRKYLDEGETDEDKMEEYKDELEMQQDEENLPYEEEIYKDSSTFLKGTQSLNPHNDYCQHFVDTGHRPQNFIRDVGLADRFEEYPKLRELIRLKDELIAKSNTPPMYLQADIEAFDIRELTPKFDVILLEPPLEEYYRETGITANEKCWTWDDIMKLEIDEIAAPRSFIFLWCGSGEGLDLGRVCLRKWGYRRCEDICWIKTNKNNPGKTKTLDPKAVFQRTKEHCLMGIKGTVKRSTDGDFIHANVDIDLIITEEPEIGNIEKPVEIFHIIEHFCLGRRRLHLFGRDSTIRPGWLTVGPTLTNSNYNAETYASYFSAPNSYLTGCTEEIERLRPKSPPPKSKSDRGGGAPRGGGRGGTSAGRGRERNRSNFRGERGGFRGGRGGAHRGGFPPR
Nature of the assay: METTL3/14 Scintillation Proximity Assay (SPA), RNA methyltransferase activity. It counts as biochemical. The conditions noted are these: 5.31 nM METTL3/14 complex, 250 nM RNA substrate, 1 μM 3H-SAM, 90 min; for compounds marked * best of the two separated forms. In general terms: SPA uses beads or plates that emit light when radiolabelled molecules are held near them.

A further assay relates to Kasumi-1 cells. Nature of the assay: Kasumi-1 cellular viability assay (ATP-Lite, 72 h). It counts as cell-based. The conditions noted are these: Homo sapiens, ATP-Lite luminescence, % viability relative to DMSO. An outline of the steps: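 Kasumi-1 AML cells, 15000/well in RPMI-1640 with 10% FBS, were exposed to compound titrations (0.1% final DMSO) for 72 h at 37 °C, 5% CO2. ATP-Lite One Step luminescence gave % viability versus DMSO control, and IC50 came from the concentration-response.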

Molecules are shown by their SMILES.

What is called IC50 is the midpoint of a concentration-inhibition curve.

As to `CC(c1nnc(-c2cncc(N(C)C)c2)s1)n1ccc(N2CCC[C@@H](NCC3CCC3)C2)cc1=O` (stereo partly drawn) [Compound 171, 4-((R)-3-((cyclobutylmethyl)amino)piperidin-1-yl)-1-(1-(5-(5-(dimethylamino)pyridin-3-yl)-1,3,4-thiadiazol-2-yl)ethyl)pyridin-2(1H)-one], the IC50 in the assay on Caov-3 cells is at most 0.5 µM; in assay [1] it was at most 0.05 µM; in the assay on Kasumi-1 cells it was at most 0.5 µM.
Consider `c1cc(C2(n3cc(-c4cncc(N5CCCC5)n4)nn3)COC2)ncc1N1CCC[C@@H](NCC2CC2)C1` [Compound 185, (R)-N-(cyclopropylmethyl)-1-(6-(3-(4-(6-(pyrrolidin-1-yl)pyrazin-2-yl)-1H-1,2,3-triazol-1-yl)oxetan-3-yl)pyridin-3-yl)piperidin-3-amine], for which the IC50 with Caov-3 cells is at most 0.5 µM; in assay [1], at most 0.05 µM; in the assay on Kasumi-1 cells, at most 0.5 µM.
Regarding `CN(C)c1cncc(-c2cn(Cc3ccc(N4CCC[C@@H](NCC5CCC5)C4)cn3)nn2)c1` [Compound 139, (R)-5-(1-((5-(3-((cyclobutylmethyl)amino)piperidin-1-yl)pyridin-2-yl)methyl)-1H-1,2,3-triazol-4-yl)-N,N-dimethylpyridin-3-amine], the values for the IC50 (with Caov-3 cells; in assay [1]; in the assay with Kasumi-1 cells) were at most 0.5 µM, at most 0.05 µM and at most 0.5 µM, respectively.
Consider `CC(n1cnc(-c2cncc(N(C)C)n2)c1)n1ccc(N2CCC[C@@H](NCC3CC3)C2)cc1=O` (single isomer, unassigned) [Compound 229], for which the results for the 50% inhibitory concentration (IC50) (in the assay on Caov-3 cells; in assay [1]; with Kasumi-1 cells) were at most 0.5 µM, at most 0.05 µM and at most 0.5 µM, respectively.
Take `COc1cc(-c2cn(Cc3ccc(N4CCC[C@@H](NCC(C)(C)C)C4)nn3)nn2)c2cn[nH]c2c1` [Compound 032, (R)-1-(6-((4-(6-methoxy-1H-indazol-4-yl)-1H-1,2,3-triazol-1-yl)methyl)pyridazin-3-yl)-N-neopentylpiperidin-3-amine]: the 50% inhibitory concentration (IC50) in the assay with Caov-3 cells was at most 0.5 µM; in assay [1], at most 0.05 µM; in the assay on Kasumi-1 cells, 0.5 to 5 µM.
On the same counts, the results for `CC(c1ccc(N2CCC[C@@H](NCC34CC(F)(C3)C4)C2)nn1)n1cc(-c2cncc(N3CCCC3)n2)nn1` (stereo partly drawn) [Compound 305, (3R)—N-((3-fluorobicyclo[1.1.1]pentan-1-yl)methyl)-1-(6-(1-(4-(6-(pyrrolidin-1-yl)pyrazin-2-yl)-1H-1,2,3-triazol-1-yl)ethyl)pyridazin-3-yl)piperidin-3-amine] are at most 0.5 µM, at most 0.05 µM and at most 0.5 µM.
On the same counts, the results for `C[C@@H]1CCN(c2cncc(-c3cn(C4(c5ccc(N6CCC[C@@H](NCC7CC7)C6)cn5)COC4)nn3)n2)C1` [Compound 244, (R)-N-(cyclopropylmethyl)-1-(6-(3-(4-(6-((R)-3-methylpyrrolidin-1-yl)pyrazin-2-yl)-1H-1,2,3-triazol-1-yl)oxetan-3-yl)pyridin-3-yl)piperidin-3-amine] are at most 0.5 µM, at most 0.05 µM and at most 0.5 µM.
On the same counts, the results for `CC(n1cc(-c2cncc(N3CC4(C3)CC4(F)F)n2)nn1)n1ccc(N2CCC[C@@H](NCC3CC3)C2)cc1=O` (single isomer, unassigned) [Compound 254] are at most 0.5 µM, at most 0.05 µM and at most 0.5 µM.
With `c1cc(N2CCC[C@@H](NCC3CCC3)C2)ccc1Cn1cc(-c2cncc(N3CC4CC4C3)n2)nn1` (stereo partly drawn) [Compound 288, (3R)-1-(4-((4-(6-(3-azabicyclo[3.1.0]hexan-3-yl)pyrazin-2-yl)-1H-1,2,3-triazol-1-yl)methyl)phenyl)-N-(cyclobutylmethyl)piperidin-3-amine], the IC50 in the assay with Caov-3 cells was at most 0.5 µM; in assay [1], at most 0.05 µM; with Kasumi-1 cells, at most 0.5 µM.
Consider `CC(n1cc(-c2cncc(N3CCCCC3)c2)nn1)n1ccc(N2CCC[C@@H](NCC3CCC3)C2)cc1=O` (single isomer, unassigned) [Compound 178], for which the IC50 is at most 0.5 µM in the assay on Caov-3 cells, at most 0.05 µM in assay [1] and at most 0.5 µM in the assay on Kasumi-1 cells.
Turning to `CC(n1cc(-c2cncc(N3CC[C@H](F)C3)n2)nn1)n1ccc(N2CCC[C@@H](NCC3CC3)C2)cc1=O` (single isomer, unassigned) [Compound 241], the IC50 in the assay with Caov-3 cells was at most 0.5 µM; in assay [1], at most 0.05 µM; with Kasumi-1 cells, at most 0.5 µM.
`COc1cnc(C#N)c(-c2cn(Cc3ccc(N4CCC[C@@H](NCC5CCC5)C4)nn3)nn2)c1` [Compound 019, (R)-3-(1-((6-(3-((cyclobutylmethyl)amino)piperidin-1-yl)pyridazin-3-yl)methyl)-1H-1,2,3-triazol-4-yl)-5-methoxypicolinonitrile]: the IC50 in the assay on Caov-3 cells was above 5 µM; in assay [1], at most 0.05 µM; in the assay on Kasumi-1 cells it was above 5 µM.
With `c1ncc(C2CCCC2)cc1-c1cn(C2(c3ccc(N4CCC[C@@H](NCC5CC5)C4)cn3)COC2)nn1` [Compound 313, (R)-1-(6-(3-(4-(5-cyclopentylpyridin-3-yl)-1H-1,2,3-triazol-1-yl)oxetan-3-yl)pyridin-3-yl)-N-(cyclopropylmethyl)piperidin-3-amine], the IC50 was at most 0.5 µM in the assay on Caov-3 cells, at most 0.05 µM in assay [1] and at most 0.5 µM in the assay on Kasumi-1 cells.
`COc1cc(-c2cn(C(C)n3ccc(N4CCC[C@@H](NCC5CCC5)C4)cc3=O)cn2)c2cn[nH]c2c1` (single isomer, unassigned) [Compound 188]: the IC50 with Caov-3 cells was 0.5 to 5 µM; in assay [1], at most 0.05 µM; in the assay with Kasumi-1 cells it was 0.5 to 5 µM.
`O=C(Nc1cnc2ccccc2n1)C1(c2ccc(N3CCC[C@@H](NCC4CCC4)C3)cn2)COC1` [Compound 297, (R)-3-(5-(3-((cyclobutylmethyl)amino)piperidin-1-Yl)pyridin-2-yl)-N-(quinoxalin-2-yl)oxetane-3-carboxamide]: the IC50 in the assay on Caov-3 cells is 0.5 to 5 µM; in assay [1], at most 0.05 µM; in the assay on Kasumi-1 cells it was above 5 µM.
With `CC(n1cc(-c2cccn3cncc23)nn1)n1ccc(N2CCC[C@@H](NCC3CCC3)C2)cc1=O` (single isomer, unassigned) [Compound 124], the IC50 with Caov-3 cells is 0.5 to 5 µM; in assay [1] it was at most 0.05 µM; with Kasumi-1 cells it was above 5 µM.
On the same counts, the results for `COc1cc(-c2cn(C(C)n3ccc(N4CCC[C@@H](NCC5CCC5)C4)cc3=O)nn2)c2cn[nH]c2c1` (mixture of isomers) [Compound 050, 4-((R)-3-((cyclobutylmethyl)amino)piperidin-1-yl)-1-(1-(4-(6-methoxy-1H-indazol-4-yl)-1H-1,2,3-triazol-1-yl)ethyl)pyridin-2(1H)-one] are at most 0.5 µM, at most 0.05 µM and at most 0.5 µM.
On the same counts, the results for `c1ncc(C2CC2)cc1-c1cn(C2(c3ccc(N4CCC[C@@H](NCC5CC5)C4)cn3)CNC2)nn1` [Compound 349, (R)-N-(cyclopropylmethyl)-1-(6-(3-(4-(5-cyclopropylpyridin-3-yl)-1H-1,2,3-triazol-1-yl)azetidin-3-yl)pyridin-3-yl)piperidin-3-amine] are 0.5 to 5 µM, at most 0.05 µM and above 5 µM.
In the same order, the values of `CC(c1ccc(N2CCC[C@@H](NCC3CCC3)C2)cc1)n1cc(-c2cncc(N(C)C)c2)nn1` (stereo partly drawn) [Compound 189, 5-(1-(1-(4-((R)3-((cyclobutylmethyl)amino)piperidin-1-yl)phenyl)ethyl)-1H-1,2,3-triazol-4-yl)-N,N-dimethylpyridin-3-amine] are at most 0.5 µM, at most 0.05 µM and at most 0.5 µM.
For the compound `CC(c1ccc(N2CCC[C@@H](NCC3CCC3)C2)nn1)n1cc(-c2cncc(N3CCCC3)c2)nn1` (stereo partly drawn) [Compound 257, (3R)—N-(cyclobutylmethyl)-1-(6-(1-(4-(5-(pyrrolidin-1-yl)pyridin-3-yl)-1H-1,2,3-triazol-1-yl)ethyl)pyridazin-3-yl)piperidin-3-amine], the values for the IC50 (in the assay on Caov-3 cells; in assay [1]; in the assay with Kasumi-1 cells) were at most 0.5 µM, at most 0.05 µM and at most 0.5 µM, respectively.
`CC(n1cc(-c2cncc(C3CC3)c2)nn1)n1ccc(N2CCC[C@@H](NCC3CC3)C2)cc1=O` (stereo partly drawn) [Compound 320, 4-((R)-3-((cyclopropylmethyl)amino)piperidin-1-yl)-1-(1-(4-(5-cyclopropylpyridin-3-yl)-1H-1,2,3-triazol-1-yl)ethyl)pyridin-2(1H)-one]: the IC50 is at most 0.5 µM in the assay on Caov-3 cells, at most 0.05 µM in assay [1] and at most 0.5 µM in the assay with Kasumi-1 cells.
Take `CC(c1ccc(N2CCC[C@@H](NCC3CCC3)C2)nn1)n1cnc(-c2cncc(N(C)C)c2)c1` (stereo partly drawn) [Compound 173, 5-(1-(1-(6-((R)-3-((cyclobutylmethyl)amino)piperidin-1-yl)pyridazin-3-yl)ethyl)-1H-imidazol-4-yl)-N,N-dimethylpyridin-3-amine]: the IC50 in the assay with Caov-3 cells was at most 0.5 µM; in assay [1], at most 0.05 µM; in the assay on Kasumi-1 cells, at most 0.5 µM.
Consider `O=C(Nc1cc(=O)n2ccccc2n1)C1(c2ccc(N3CCC[C@@H](NCC4CCC4)C3)cn2)COC1` [Compound 239, (R)-3-(5-(3-((cyclobutylmethyl)amino)piperidin-1-yl)pyridin-2-yl)-N-(4-oxo-4H-pyrido[1,2-a]pyrimidin-2-yl)oxetane-3-carboxamide], for which the IC50 in the assay with Caov-3 cells is at most 0.5 µM; in assay [1] it was at most 0.05 µM; with Kasumi-1 cells, at most 0.5 µM.
`CC(c1ccc(N2CCC[C@@H](NCC3CC3)C2)cn1)n1cnc(-c2cncc(N3CCCC3)n2)c1` (single isomer, unassigned) [Compound 355]: the IC50 in the assay with Caov-3 cells is at most 0.5 µM; in assay [1], at most 0.05 µM; in the assay on Kasumi-1 cells, at most 0.5 µM.
